Where a name gives a salt, the structure may show the parent alone.
How the values were obtained:
DPP-IV = biological target: T1, DPP-IV (Homo sapiens, UniProt P27487); assay: DPP-IV assay with Caco-2 cell extract as DPP IV source, AFC substrate, fluorescence; type: biochemical; conditions: extract of human colon carcinoma cell line Caco-2; substrate 100 μM; 60 minutes at ambient temperature; read-out: DPP IV inhibition IC50
T1 construct: an extract of human colon carcinoma cell line Caco-2 is used as the DPP IV source; endogenous in cells; host or cells: Caco-2 (human colon carcinoma), differentiated to induce DPP-IV expression; Nonidet-P40 solubilised extract
T1 sequence (P27487 whole entry): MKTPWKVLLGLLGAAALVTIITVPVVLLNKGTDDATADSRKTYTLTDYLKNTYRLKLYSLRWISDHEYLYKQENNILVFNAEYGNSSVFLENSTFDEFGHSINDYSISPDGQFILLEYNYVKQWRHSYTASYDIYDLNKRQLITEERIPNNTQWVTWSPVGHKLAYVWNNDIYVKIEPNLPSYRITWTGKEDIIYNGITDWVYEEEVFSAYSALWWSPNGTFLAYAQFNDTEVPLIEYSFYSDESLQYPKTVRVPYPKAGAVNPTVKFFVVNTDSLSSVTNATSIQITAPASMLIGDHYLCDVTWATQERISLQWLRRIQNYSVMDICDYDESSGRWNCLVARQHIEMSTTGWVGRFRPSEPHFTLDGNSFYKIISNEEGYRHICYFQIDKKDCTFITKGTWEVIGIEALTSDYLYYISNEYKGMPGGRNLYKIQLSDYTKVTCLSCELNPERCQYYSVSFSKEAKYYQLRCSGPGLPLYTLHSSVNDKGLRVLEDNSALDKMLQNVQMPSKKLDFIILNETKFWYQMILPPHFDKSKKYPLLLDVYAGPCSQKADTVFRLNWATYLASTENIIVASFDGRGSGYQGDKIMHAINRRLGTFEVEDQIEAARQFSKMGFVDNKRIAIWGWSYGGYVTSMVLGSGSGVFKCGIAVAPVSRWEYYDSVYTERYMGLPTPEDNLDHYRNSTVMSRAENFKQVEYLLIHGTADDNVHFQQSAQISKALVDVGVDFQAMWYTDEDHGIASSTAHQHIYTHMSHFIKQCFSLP
Experimental: The differentiation of the cells in order to induce the DPP-IV expression was carried out as described by Reiher et al. in an article entitled “Increased expression of intestinal cell line Caco-2”, which appeared in Proc. Natl. Acad. Sci. Vol. 90, pages 5757-5761 (1993). The cell extract was obtained from cells solubilised in a buffer (10 mM Tris HCl, 0.15 M NaCl, 0.04 t.i.u. aprotinin, 0.5% Nonidet-P40, pH 8.0) by centrifuging at 35,000 g for 30 minutes at 4° C. (to remove cell debris).
The DPP-IV assay was carried out as follows:
50 μl substrate solution (AFC; AFC is amido-4-trifluoromethylcoumarin), final concentration 100 μM, were placed in black microtitre plates. 20 μl of assay buffer (final concentrations 50 mM Tris HCl pH 7.8, 50 mM NaCl, 1% DMSO) was pipetted in. The reaction was started by adding 30 μl of solubilised Caco-2 protein (final concentration 0.14 μg of protein per well). The test substances to be investigated were typically added prediluted in 20 μl, and the volume of assay buffer was then reduced accordingly. The reaction was carried out at ambient temperature, incubating for 60 minutes. Then the fluorescence was measured in a Victor 1420 Multilabel Counter, the excitation wavelength being 405 nm and the emission wavelength being 535 nm. Blank readings (corresponding to 0% activity) were obtained in mixtures without any Caco-2 protein (volume replaced by assay buffer), control values (corresponding to 100% activity) were obtained in mixtures with no substance added.

[1] = Tolerability after oral administration to rats; type: in vivo; conditions: 30 mg/kg

| SMILES | IC50 (DPP-IV) [µM] | toxic side effects or changes in the animals' behaviour [1] |
| --- | --- | --- |
| Cn1c(NCc2ccc(F)cc2)nc2nc(N3CCCC(N)C3)n(Cc3ccccc3)c2c1=O (stereo not shown) [1(1), 8-(3-amino-piperidin-1-yl)-7-benzyl-2-(4-fluoro-benzylamino)-1-methyl-1,7-dihydro-purin-6-one trifluoroacetate] | 0.024 |  |
| Cn1c(NCCc2ccccc2)nc2nc(N3CCCC(N)C3)n(Cc3ccccc3)c2c1=O (stereo not shown) [1(2), 8-(3-amino-piperidin-1-yl)-7-benzyl-1-methyl-2-[(2-phenylethyl)amino]-1,7-dihydro-purin-6-one trifluoroacetate] | 0.042 |  |
| CC(C)Nc1nc2nc(N3CCCC(N)C3)n(Cc3ccccc3)c2c(=O)n1C (stereo not shown) [1(3), 8-(3-amino-piperidin-1-yl)-7-benzyl-2-isopropylamino-1-methyl-1,7-dihydro-purin-6-one trifluoroacetate] | 0.11 |  |
| CNc1nc2nc(N3CCCC(N)C3)n(Cc3ccccc3)c2c(=O)n1C (stereo not shown) [1(4), 8-(3-amino-piperidin-1-yl)-7-benzyl-1-methyl-2-methylamino-1,7-dihydro-purin-6-one trifluoroacetate] | 0.058 |  |
| Cn1c(NC2CCCCC2)nc2nc(N3CCCC(N)C3)n(Cc3ccccc3)c2c1=O (stereo not shown) [1(5), 8-(3-amino-piperidin-1-yl)-7-benzyl-2-cyclohexylamino-1-methyl-1,7-dihydro-purin-6-one trifluoroacetate] | 0.134 |  |
| Cn1c(NCC2CCCCC2)nc2nc(N3CCCC(N)C3)n(Cc3ccccc3)c2c1=O (stereo not shown) [1(6), 8-(3-amino-piperidin-1-yl)-7-benzyl-2-cyclohexylmethylamino-1-methyl-1,7-dihydro-purin-6-one trifluoroacetate] | 0.048 |  |
| Cn1c(N2CCCCC2)nc2nc(N3CCCC(N)C3)n(Cc3ccccc3)c2c1=O (stereo not shown) [1(7), 8-(3-amino-piperidin-1-yl)-7-benzyl-1-methyl-2-(piperidin-1-yl)-1,7-dihydro-purin-6-one hydrochloride] | 0.434 |  |
| CN(C)c1nc2nc(N3CCCC(N)C3)n(Cc3ccccc3)c2c(=O)n1C (stereo not shown) [1(8), 8-(3-amino-piperidin-1-yl)-7-benzyl-2-dimethylamino-1-methyl-1,7-dihydro-purin-6-one trifluoroacetate] | 0.213 |  |
| Cn1c(N)nc2nc(N3CCCC(N)C3)n(Cc3ccccc3)c2c1=O (stereo not shown) [1(9), 2-amino-8-(3-amino-piperidin-1-yl)-7-benzyl-1-methyl-1,7-dihydro-purin-6-one trifluoroacetate] | 0.061 |  |
| Cc1nc2nc(N3CCCC(N)C3)n(Cc3ccccc3)c2c(=O)n1C (stereo not shown) [1(11), 8-(3-amino-piperidin-1-yl)-7-benzyl-1-methyl-2-methyl-1,7-dihydro-purin-6-one trifluoroacetate] | 0.054 |  |
| CC(C)=CCn1c(N2CCCC(N)C2)nc2nc(CCc3ccccc3)n(C)c(=O)c21 (stereo not shown) [1(12), 8-(3-amino-piperidin-1-yl)-1-methyl-7-(3-methyl-but-2-en-1-yl)-2-(2-phenylethyl)-1,7-dihydro-purin-6-one trifluoroacetate] | 0.018 |  |
| CSc1nc2nc(N3CCCC(N)C3)n(Cc3ccccc3)c2c(=O)[nH]1 (stereo not shown) [1(14), 8-(3-amino-piperidin-1-yl)-7-benzyl-2-methylsulphanyl-1,7-dihydro-purin-6-one hydrochloride] | 0.158 |  |
| NC1CCCN(c2nc3nc(SCc4ccccc4)[nH]c(=O)c3n2Cc2ccccc2)C1 (stereo not shown) [1(15), 8-(3-amino-piperidin-1-yl)-7-benzyl-2-benzylsulphanyl-1,7-dihydro-purin-6-one trifluoroacetate] | 0.058 |  |
| NC1CCCN(c2nc3ncn(CC(=O)c4ccccc4)c(=O)c3n2Cc2ccccc2)C1 (stereo not shown) [1(22), 8-(3-amino-piperidin-1-yl)-7-benzyl-1-(2-oxo-2-phenyl-ethyl)-1,7-dihydro-purin-6-one trifluoroacetate] | 0.048 |  |
| Cn1c(CC(=O)c2ccccc2)nc2nc(N3CCCC(N)C3)n(Cc3ccccc3)c2c1=O (stereo not shown) [1(23), 8-(3-amino-piperidin-1-yl)-7-benzyl-1-methyl-2-(2-oxo-2-phenyl-ethyl)-1,7-dihydro-purin-6-one] | 0.157 |  |
| Cn1c(C#N)nc2nc(N3CCCC(N)C3)n(Cc3ccccc3)c2c1=O (stereo not shown) [1(24), 8-(3-amino-piperidin-1-yl)-7-benzyl-2-cyano-1-methyl-1,7-dihydro-purin-6-one trifluoroacetate] | 0.113 |  |
| CC(C)=CCn1c(N2CCCC(N)C2)nc2nc(C)n(Cc3ccccc3)c(=O)c21 (stereo not shown) [1(25), 8-(3-amino-piperidin-1-yl)-1-benzyl-2-methyl-7-(3-methyl-but-2-en-1-yl)-1,7-dihydro-purin-6-one] | 0.275 |  |
| CC(C)=CCn1c(N2CCCC(N)C2)nc2nc(C)n(Cc3cccc4ccccc34)c(=O)c21 (stereo not shown) [1(26), 8-(3-amino-piperidin-1-yl)-2-methyl-7-(3-methyl-but-2-en-1-yl)-1-[(naphthalen-1-yl)methyl]-1,7-dihydro-purin-6-one] | 0.04 |  |
| CC(C)=CCn1c(N2CCCC(N)C2)nc2ncn(Cc3cccc4ccccc34)c(=O)c21 (stereo not shown) [1(27), 8-(3-amino-piperidin-1-yl)-7-(3-methyl-but-2-en-1-yl)-1-[(naphthalen-1-yl)methyl]-1,7-dihydro-purin-6-one] | 0.019 |  |
| COc1ccc(Cn2cnc3nc(N4CCCC(N)C4)n(CC=C(C)C)c3c2=O)c2ccccc12 (stereo not shown) [1(28), 8-(3-amino-piperidin-1-yl)-7-(3-methyl-but-2-en-1-yl)-1-[(4-methoxy-naphthalen-1-yl)methyl]-1,7-dihydro-purin-6-one] | 0.057 |  |
| Cn1c(NCc2ccccc2)nc2nc(N3CCCC(N)C3)n(Cc3ccccc3)c2c1=O (stereo not shown) [Example 1, 8-(3-amino-piperidin-1-yl)-7-benzyl-2-benzylamino-1-methyl-1,7-dihydro-purin-6-one] | 0.011 | no toxic side effects or changes in the animals' behaviour could be detected |

— patent publication US7569574B2, “Purine derivatives, the preparation thereof and their use as pharmaceutical compositions” (Boehringer Ingelheim Pharma GmbH & Co. KG, priority 2002, dated 2009)
